Source: patent US9702869B2, “Assays, antibodies, immunogens and compositions related to 5-FU” (WELLSTAT DIAGNOSTICS, LLC, priority 2011, dated 2017)

Key:
monoclonal antibody 61C6 = test: Cross-reactivity evaluation with lyophilized reagents (Bi-mAb-Beads capture, TAG Plus 1-5C-5-FU-BSA detector); type: binding, Balb/c mouse
Protocol: This experiment was performed to test the specificity of the monoclonal antibody 61C6 against 5-FU analogues, pro-drugs and interference reagents. […] In this Example, the components of 5-FU assay (capture, detector) were lyophilized and the sample (calibrator, controls, and spiked plasma samples) were added directly to the lyophilized reagent pellets.
The assay was prepared using the following protocol. […] The capture and the detector solutions were aliquoted (20 μL) and lyophilized.
The assay procedure was as follows. The electrostatic on the surface of the microplate was reduced by using a Zerostat Antistatic Device prior to use. The device was pointed on the surface of the microplate, squeezed and the trigger released a few times across the microplate. 1 lyophilized pellet of each capture and detector reagent was transferred into plate wells using the Vacuum Pick-Up System. A hollow needle tip was attached onto the pick-up pen, and the finger controlled vacuum was used for picking up (the index finger was placed over the hole so that vacuum was drawn through the needle) or releasing pellet (lifting the index finger off of the hole). On a metal plate holder of a Digital Heat Block set at 37±2° C., 50 μL of each calibrator, control, and sample (in this case cross-reactivity panels) were added in duplicate directly into plate wells containing 2 lyophilized pellets. The plate was placed on the Micromix shaker set at Form 8 & Amp 6 for 30 seconds to mix. The plate was then placed in the metal plate holder of a Digital Heat Block set at 37±2° C. The plate was covered with a plate cover and incubated for 5±0.5 minutes.

mAb 61C6 = test: Competitive ECL cross-reactivity test in human plasma with and without 5-FU; conditions: for Cross-Reactivity (%): human plasma, chemicals 10 μg/mL, chemotherapy drugs 100 μg/mL; for cross-reactivity: with and without 5-FU, Table 5
[1] = tested on: anti-5-FU 61C6 monoclonal antibody; test: Assay timing evaluation of competitive 5-FU ECL immunoassay; type: binding, Balb/c mouse; conditions: 25 ng/mL of 5-FU in charcoal stripped plasma
antibody 61C6 = test: 5-FU ECL assay with antibody 61C6, summary of cross-reactivity; type: binding, Balb/c mouse; conditions: 5-FU assay with antibody 61C6
Protocol: The capture reagent 1-5C-5-FU-M270 beads appeared to be stable at 2-8° C. for at least 40 hours. […] The functional sensitivity was determined to be approximately 10 ng/mL (which is an estimate of functional sensitivity based on the calibrator curve).

[2] = Without 5-FU, lyophilized reagents, human plasma

Compound | % Cross-React (monoclonal antibody 61C6; With 75 ng/mL Spiked 5-FU) [%] | % Cross-React (monoclonal antibody 61C6; With 1000 ng/mL Spiked 5-FU) [%] | % Cross-React (monoclonal antibody 61C6; [2]) [%] | Cross-Reactivity (%) (mAb 61C6; With 5-FU (379 ng/mL)) | Cross-Reactivity (%) (mAb 61C6; Without 5-FU) | cross-reactivity (mAb 61C6) | ECL signal compared to CAL1 ([1]; 5 minutes incubation at 37° C.) [%] | ECL signal compared to CAL1 ([1]; other incubation timing (10, 15 minutes)) [%] | cross-reactivity (antibody 61C6)
Nc1nc(=O)c2c([nH]1)NCC(CNc1ccc(C(=O)N[C@@H](CCC(=O)O)C(=O)O)cc1)N2C=O (mixture of isomers) [Folinic Acid] | 0.1 | 0.0 | 0.0 | −0.01 | 0.000 | essentially undetectable | – | – | –
O=c1[nH]cc(F)c(=O)[nH]1 [5-FU, 5-Fluorouracil] | – | – | – | – | – | – | 61 | 78 | –
CCCCCOC(=O)Nc1nc(=O)n([C@@H]2O[C@H](C)[C@@H](O)[C@H]2O)cc1F [Capecitabine] | 0.7 | 0.6 | 0.0 | −0.13 | 0.00 | – | – | – | –
N.N.[Cl][Pt][Cl] [Cisplatin] | – | 0.1 | – | −0.04 | 0.001 | essentially undetectable | – | – | –
O=C1NCC(F)C(=O)N1 (centres unmarked) [DH5FU, 5-Fluorodihydropyrimidine-2,4-dione] | – | 1.0 | – | 1.74 | 2.62 | – | – | – | –
CCc1c2c(nc3ccc(OC(=O)N4CCC(N5CCCCC5)CC4)cc13)-c1cc3c(c(=O)n1C2)COC(=O)[C@]3(O)CC [Irinotecan] | 0.1 | 0.3 | – | – | – | essentially undetectable | – | – | –
CN(Cc1cnc2nc(N)nc(N)c2n1)c1ccc(C(=O)N[C@@H](CCC(=O)O)C(=O)O)cc1 [Methotrexate] | 0.0 | 0.1 | 0.0 | −0.02 | 0.000 | essentially undetectable | – | – | –
O=C1[O][Pt]2([NH][C@@H]3CCCC[C@H]3[NH]2)[O]C1=O [Oxaliplatin] | – | 0.0 | – | 0.01 | 0.000 | essentially undetectable | – | – | –
O=c1[nH]c(=O)n(C2CCCO2)cc1F (centres unmarked) [Tegafur] | 56 | 45 | 42 | 15.5 | 16.2 | – | – | – | less than 12%
Cc1cn([C@H]2C[C@H](O)[C@@H](CO)O2)c(=O)[nH]c1=O [Thymidine] | 1.0 | 1.3 | 0.2 | 0.13 | 0.05 | – | – | – | –
Cc1c[nH]c(=O)[nH]c1=O [Thymine] | 2.5 | 2.2 | 1.0 | 0.80 | 0.59 | – | – | – | –
O=c1cc[nH]c(=O)[nH]1 [Uracil] | 3.4 | 2.6 | 1.9 | 0.11 | 0.94 | – | – | – | –
O=c1ccn([C@@H]2O[C@H](CO)[C@@H](O)[C@H]2O)c(=O)[nH]1 [Uridine] | 1.6 | 0.9 | 0.5 | 0.16 | 0.21 | – | – | – | –
Hemoglobin | 0.0 | −0.1 | 0.0 | – | – | – | – | – | –
